How the values were obtained:
[1] = test system: T47D human breast carcinoma cells; assay: Assay to Demonstrate Ability to Increase Breast Cell Proliferation ([3H]-thymidine incorporation); format: cell-based; settings: at the concentration of the same table line, control level set at 100%
Method: This assay is used to measure the sex steroid effects of compounds. The activity of compounds in this assay is an indication of their potential use as replacements for naturally occuring hormones in individuals with sex hormone deficiencies.
T47D human breast carcinoma cells are grown in 96-well plates in phenol-red free nutrient media at 37° C. for 48 hours. Conditioned media is removed and replaced with fresh media containing test compounds dissolved in DMSO (0.1% final concentration) and the cells are incubated for an additional 18-20 hours at 37° C. [^3 H]-thymidine is added to each well and allowed to incorporate into DNA for 4 hours. Unlabeled thymidine is then added to terminate the reaction, and the cultures are then washed, trypsinized and harvested. The amount of [^3 H]-thymidineincorporated into DNA is determined by liquid scintillation. Data for each well are expressed as a percent above control level, which is set at 100%. The concentration at which maximal deviation from control is found and the magnitude of that percent deviation is reported. Table T lists the data for some of the compounds of this invention.

[2] = biological target: T1, Progestin Receptor (Oryctolagus cuniculus, UniProt P06186); assay: Progestin Receptor Binding (competitive binding, 3H-promegestone, rabbit uterus receptor preparation); set-up: species or system New Zealand rabbits; settings: 3H-promegestone displacement, 4° C., 18 h
T1 construct: The high speed supernatant fraction was used as the receptor preparation; from tissue; host or cells: uterus of New Zealand rabbits, 200,000×g supernatant (cytosol)
T1 sequence (P06186 1-930): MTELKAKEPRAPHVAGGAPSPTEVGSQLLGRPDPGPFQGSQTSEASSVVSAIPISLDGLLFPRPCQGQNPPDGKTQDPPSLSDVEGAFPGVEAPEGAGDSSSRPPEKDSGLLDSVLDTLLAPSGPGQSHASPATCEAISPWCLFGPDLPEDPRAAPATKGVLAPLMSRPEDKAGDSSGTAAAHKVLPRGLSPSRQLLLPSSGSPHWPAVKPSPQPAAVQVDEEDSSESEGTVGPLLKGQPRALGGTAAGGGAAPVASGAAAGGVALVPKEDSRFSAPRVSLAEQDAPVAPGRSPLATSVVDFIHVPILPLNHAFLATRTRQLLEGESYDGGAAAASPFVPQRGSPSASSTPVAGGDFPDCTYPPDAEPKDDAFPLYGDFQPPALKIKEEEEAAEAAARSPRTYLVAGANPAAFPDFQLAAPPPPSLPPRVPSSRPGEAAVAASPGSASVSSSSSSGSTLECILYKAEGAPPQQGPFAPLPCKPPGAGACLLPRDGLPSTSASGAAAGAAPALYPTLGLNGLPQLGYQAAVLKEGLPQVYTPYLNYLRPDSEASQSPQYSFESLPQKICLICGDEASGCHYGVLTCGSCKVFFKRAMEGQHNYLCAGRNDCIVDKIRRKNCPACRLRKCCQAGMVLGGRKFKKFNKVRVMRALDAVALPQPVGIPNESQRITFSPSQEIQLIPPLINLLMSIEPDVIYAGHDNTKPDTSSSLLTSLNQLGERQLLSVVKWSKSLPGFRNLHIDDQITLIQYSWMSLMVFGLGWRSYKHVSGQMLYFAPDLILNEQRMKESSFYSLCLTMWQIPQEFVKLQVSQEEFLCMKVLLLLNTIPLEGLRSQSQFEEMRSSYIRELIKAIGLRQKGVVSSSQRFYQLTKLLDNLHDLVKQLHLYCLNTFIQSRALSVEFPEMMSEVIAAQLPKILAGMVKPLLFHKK
Method: Progestin Receptor Binding
The procedure used was essentially that of J. L. McGuire, C.
Uteri from New Zealand rabbits (1.5 to 2.5 kg) were placed in a cold buffer A (0.01 mol Tris-HCl, pH 8.0, 0.001 mol EDTA, 0.25 mol sucrose). The uteri were minced, washed and homogenized in cold buffer A. The homogenate (2 g wet tissue/mL buffer) was centrifuged at 200,000×g for 1 h at 4° C. The high speed supernatant fraction was used as the receptor preparation.
A competitive binding assay was performed by mixing 3H-promegestone with the receptor preparation and adding a known amount of unlabeled compound. This mixture was incubated at 4° C. for 18 h. The compounds bound to the receptor were separated from those which were free in solution using dextran coated charcoal and the amount of isotope bound to the receptor was determined by scintillation counting. The extent of the compound's interaction with the receptor is measured as the percent reduction in the total isotope bound caused by the unlabeled test compound as compared to the control levels. The receptor screen consists of measuring the reduction in the total isotope bound caused by the unlabeled test compound at […] final concentrations.

Row | Compound | % control (magnitude of maximal deviation from control) [1] | IC50 [2]
1 | CC(=O)Oc1cccc2c1CC=C1c3ccc(F)cc3CC1(C)C2 (stereo not drawn) [Compound 113] | 470% | 6 nM
2 | CC1CC2c3ccccc3CC2(C)Cc2cc(F)ccc21 (stereo not drawn) [Compound 88, 6,11a-Dimethyl-9-fluoro-4b,5,6,11,11a,12-hexahydrodibenz[a,f]azulene] | 187% | 34 nM
3 | COc1ccc2c(c1)CC1(C)Cc3cc(OC)ccc3C1C(O)C2C (stereo not drawn) [Compound 78] | 112% | –
4 | COc1ccc2c(c1)CC1(C)Cc3cc(F)ccc3C1=CC2C (stereo not drawn) [Compound 30, 2-Fluoro-6,11,11a,12-tetrahydro-9-methoxy-6,11a-dimethyldibenz[a,f]azulene] | 204% | 6 nM
5 | CCC12Cc3ccccc3C(C)CC1c1ccccc1C2 (stereo not drawn) [Compound 53] | 50% | 57 nM
6 | COc1ccc2c(c1)CC1(C)Cc3cc(F)ccc3C1C(O)C2C (stereo not drawn) [Compound 45] | 191% | 115 nM
7 | CCC[C@]12Cc3ccccc3C1=C[C@@H](C)c1ccc(N)cc1C2 (relative stereo) [Compound 85] | 215% | 19 nM
8 | CCCC12Cc3cc(OC)ccc3CC=C1c1ccccc1C2 (stereo not drawn) [Compound 27] | 224% | 27 nM
9 | Cc1ccc2c(c1)CC1(C)Cc3ccccc3C1=CC2 (stereo not drawn) [Compound 70] | 173% | 42 nM
10 | CC[C@]12Cc3ccccc3C1C[C@@H](C)c1ccc(O)cc1C2 (stereo partly drawn) [Compound 46] | – | 65 nM
11 | CC(=O)Oc1cccc2c1CCC1c3ccccc3CC1(C)C2 (stereo not drawn) [Compound 108] | – | 29 nM
12 | COc1cc2c(c(OC)c1)[C@H](C)C[C@@H]1c3ccccc3C[C@]1(C)C2 (relative stereo) [Compound 86] | – | 1670 nM
13 | COc1cc2c(cc1[N+](=O)[O-])C(C)C(O)C1c3ccccc3CC1(C)C2 (stereo not drawn) [Compound 25, 6,11a-Dimethyl-5-hydroxy-9-methoxy-8-nitro-4b,5,6,11,11a,12-hexahydrodibenz[a,f]azulene] | – | 121 nM
14 | COc1ccc2c(c1)C[C@@]1(C)Cc3ccccc3C1[C@@H](O)[C@H]2C (relative stereo) [Compound 64, 6,11a-Dimethyl-5-hydroxy-9-methoxy-4b,5,6,11,11a,12-hexahydrodibenz[a,f]azulene (β-OH)] | – | 1680 nM
15 | COc1ccc2c(c1)CC1(C)Cc3cc(OC)ccc3C1C(O)C2C (stereo not drawn) [Compound 19] | – | 668 nM
16 | COc1cc2c(cc1C(C)=O)[C@H](C)C=C1c3ccccc3C[C@]1(C)C2 (relative stereo) [Compound 44] | – | 190 nM
17 | COc1cc2c(cc1C(C)=O)C(C)CC1c3ccccc3CC1(C)C2 (stereo not drawn) [Compound 61, 8-Acetyl-4b,5,6,11,11a,12-hexahydro-6,11a-dimethyl-9-methoxydibenz[a,f]azulene] | – | 365 nM
18 | CC12Cc3ccccc3C1CCc1c(N)cccc1C2 (stereo not drawn) [Compound 96] | – | 34 nM
19 | COc1cccc2c1CC=C1c3ccccc3CC1(C)C2 (stereo not drawn) [Compound 1, 7-Methoxy-11a-methyl-6,11,11a,12-tetrahydrodibenz[a,f]azulene] | – | 143 nM
20 | CC12Cc3ccccc3C1CCc1c(F)cccc1C2 (stereo not drawn) [Compound 98] | – | 60 nM
21 | COc1ccc2c(c1)C[C@@]1(C)Cc3ccccc3[C@H]1C[C@H]2C (relative stereo) [Compound 8] | – | 476 nM
22 | COc1ccc2c(c1)CC1(C)Cc3cc(OC)ccc3C1C(=O)C2 (stereo not drawn) [Compound 75] | – | 555 nM
23 | CCC12Cc3cc(OC)ccc3CC=C1c1ccc(OC)cc1C2 (stereo not drawn) [Compound 37] | – | 2600 nM
24 | CCCC12Cc3cc(OC(C)=O)ccc3CCC1c1ccccc1C2 (stereo not drawn) [Compound 50] | – | 42 nM
25 | COc1ccc2c(c1[N+](=O)[O-])CC1(C)Cc3ccccc3C1C(O[N+](=O)[O-])C2C (stereo not drawn) [Compound 82, 5-(6,11a-Dimethyl-9-methoxy-10-nitro-4b-5,6,11,11a,12-hexahydro)dibenz[a,f]azulenyl nitrate ester] | – | 99 nM
